Results: PMC8231349 (Journal of Enzyme Inhibition and Medicinal Chemistry, 2021)
Several values for one entry are separate records, joined by “and”; a condition that tells them apart may be missing. Equal values may be shown once. One block for each compound: values may come before it.

What was measured:
[1] = system: human prostate cancer cells (DU145); experiment: MTT cell viability assay, DU145; format: cell-based; settings: 72 h
Procedure: (§1) Experiments were performed on human prostate cancer cells (DU145; ATCC HTB-81), human lung cancer cells (A549; ATCC CCL-185-LUC2) and human bronchial epithelium cells (BEAS-2B; ATCC CRL-9609). Cells were grown in Dulbecco's modified Eagle's medium (DMEM) supplemented with 10% of heat-inactivated foetal bovine serum (FBS), 100 U/ml penicillin and 100 μg/ml streptomycin (Sigma-Aldrich, Steinheim, Germany). Cells were incubated at 37 °C in a humidified atmosphere with 5% CO2. […] Cells were seeded into 96-well plates at a density of 7,0 × 10[3] cells/well in 100 µl of culture medium. After 24 h, cells were treated with the compounds at three different concentrations (1 µM, 10 µM and 50 µM) for 72 h. Following treatments, 0.5 mg/ml of 3-[4,5-dimethylthiazol-2-yl]-2,5-diphenyltetrazolium bromide (MTT) (Sigma Aldrich) was added to each well and incubated for 4 h at 37 °C. Finally, DMSO was used to dissolve formazan salts and absorbance was measured at 570 nm in a microplate reader (Biotek Synergy-HT). […]
(§2) Compound 3 was preliminarily assessed for its cytotoxic activity towards human prostate and lung cancer cell lines (DU145 and A549, respectively), in which the overexpression of the HO-1 has been confirmed[46]^,[47]. […] Cell survival was calculated compared to untreated controls for 72 h. At the end of treatment, cell viability was evaluated using the MTT assay. […]

[2] = system: human lung cancer cells (A549); experiment: MTT cell viability assay, A549; format: cell-based; settings: 72 h
Procedure: as §1, §2

[3] = set-up: method as in PMID 29454190; settings: predicted, ref [34], cited from earlier work
[4] = set-up: method as in PMID 29454190; settings: predicted; ref [34]; cited from earlier work
[5] = Chemical stability of 3 in buffer solutions at different pHs (HPLC); format: physicochemical; settings: 37 °C
Procedure: The HPLC analysis of samples at various time intervals from in vitro stability in different buffers and porcine esterase solution was performed on Shimadzu Prominence-i LC-2030C 3 D Plus equipped with RID20A. Detector chromatographic separation were carried out using Chromolith SpeedROD RP […], Merck. Spectra were analysed in 200–800 nm range with 1.2 nm resolution. The column was maintained at 30 °C and eluted under gradient conditions from 100% to 0% of eluent A over 3 min, at a flow rate of 5 ml min^−1. Eluent A: water/trifluoroacetic acid (0.1%, v/v); eluent B: acetonitrile/ trifluoroacetic acid (0.1%, v/v).
A stock solution of compound 3 in DMSO (3.0 mg/mL) was prepared. To a test tube containing 0.9 ml of the corresponding Acetate (pH = 2.0) or PBS buffer solution (pH = 7.4 and 8.0, respectively), 0.1 ml of stock solution was added, and the mixture stirred and thermostated in a sand bath at 37 °C. Aliquots (0.1 ml) were withdrawn at specific time intervals and transferred to sample vials containing acetonitrile (0.9 ml). The percentage of compound remaining was followed by HPLC analysis. The retention time (tR) of compound 1, 2, and 3 were 0.74, 0.89, and 0.95 min, respectively. All the experiments were performed in triplicate.
0.001 g of lyophilised powder of esterase from the porcine liver (Sigma-Aldrich, St. Louis, Missouri, USA) was reconstituted in 1.0 ml PBS buffer (0.01 M, pH 7.4) to make an aqueous porcine esterase solution (5 U/mL), and then pre-thermostated at 37 °C. To a test tube containing 1.85 ml of PBS buffer, 0.15 ml from the stock solution of the test compound was added. The mixture was then stirred and thermostated in a sand bath at 37 °C, and 1.0 ml of the porcine esterase solution was added to initiate the enzymatic reaction. For the negative control reaction, the volume of porcine esterase solution was replaced by phosphate buffer. Aliquots (0.3 ml) were withdrawn at 0, 30, 60, 120, 180, and 240 min, and quenched with cold acetonitrile (0.7 ml)[28]. The samples were centrifuged for 6 min at 10,000 rpm, and supernatants were analysed by HPLC to check the amounts (area under the curve, AUC) of the remaining intact compound. All the experiments were performed in triplicate. Pseudo-first-order rate constant for the hydrolysis was determined from the slope of linear plots of the natural logarithm (ln) of the AUC of the peak at time t (AUCt) against time. Half-life (t1/2) was calculated according to Equation (1): (1) t1/2 = ln 2/k were k is the pseudo-first-order rate constant.
The chemical stability of 3 was evaluated at different pH values to mimic physiological conditions, including gastrointestinal (GI) tract (pH = 2.0), human plasma (pH = 7.4), and pancreatic fluid (pH = 8.0). As a result, the pH value strongly affected the chemical stability and hydrolysis rate of the hybrid 3 (Figure 2).

HO-1 = biological target: T1, HO-1 (Rattus norvegicus, UniProt P06762); experiment: HO-1 enzymatic activity in the microsomal fraction of rat spleen (bilirubin formation); format: biochemical; settings: mean ± SD of triplicate assays
T1 construct: selected in order to use the most native (i.e. closest to in vivo) forms of HO-1; from tissue; host or cells: rat spleen microsomal fraction (male Sprague-Dawley rats)
T1 sequence (P06762 1-289): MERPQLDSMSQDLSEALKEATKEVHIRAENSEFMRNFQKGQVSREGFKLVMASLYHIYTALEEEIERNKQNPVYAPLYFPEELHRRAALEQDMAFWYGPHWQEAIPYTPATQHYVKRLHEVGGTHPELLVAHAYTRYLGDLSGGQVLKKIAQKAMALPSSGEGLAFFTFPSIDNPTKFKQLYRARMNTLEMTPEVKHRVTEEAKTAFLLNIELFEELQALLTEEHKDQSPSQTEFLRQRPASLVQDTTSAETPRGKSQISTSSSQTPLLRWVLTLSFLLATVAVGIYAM
Procedure: Since the dominance of HO-1 protein in the rat spleen has been well documented, HO-1 was obtained from rat spleen as the microsomal fraction prepared by differential centrifugation. This particular microsomal preparation was selected in order to use the most native (i.e. closest to in vivo) forms of HO-1. Spleen (Sprague-Dawley rats) microsomal fractions were prepared according to the procedure outlined by Ryter et al.[33]. The experiments reported in the present paper complied with current Italian law and met the guidelines of the Institutional Animal Care and Use Committee of […] OF HEALTH (Directorate General for Animal Health and Veterinary Medicines) (Italy). […]
Liver cytosol has been used as a source of BVR. […] The 100,000 g supernatant was saved and then stored in small amounts at −80 °C after its protein concentration was measured.
The HO-1 activity was determined by measuring the bilirubin formation using the difference in absorbance at 464 to 530 nm as described by Ryter et al.[33]. […] After recovering the chloroform phase, the amount of bilirubin formed was measured with a double-beam spectrophotometer as OD464-530 nm (extinction coefficient, […] for bilirubin). […]
Inhibition activity assay for HO-1 was performed by extracting the enzyme from the rat spleen microsomal fraction. […] Results are expressed as enzyme inhibition activity (IC50) in μM (Table S2, Supplemental material).

IC50 ([1]; Homo sapiens, DU-145, DU145 cells, MTT): 31.7 ± 0.92 µM
IC50 ([2]; Homo sapiens, A549 cells, MTT): 980 ± 130 nM
Structure (SMILES): O=c1[nH]cc(F)c(=O)[nH]1 [Compound 5-FU, 5-Fluorouracil, reference compound]

Structure (SMILES): OC(Cn1ccnc1)c1cccc(Br)c1 (centres unmarked) [Compound 1, 1–(3-bromophenyl)-2-(1H-imidazol-1-yl)ethanol]
Effect on cell viability ([1]; DU145 cells, 1, 10 and 50 μM): no cytotoxic effect
Effect on cell viability ([2]; A549 cells, 1, 10 and 50 μM): no cytotoxic effect
HIA (%) ([3]; human intestinal absorption): 96.1%
Papp ([3]; in vitro Caco-2 cell permeability): 29.6 nm/s
PPB (%) ([3]; in vitro plasma protein binding): 65%
BBB (Cbrain/Cblood) ([3]; in vivo blood-brain barrier penetration): 0.7 Cbrain/Cblood
Toxicity prediction: Irritant [4]: none
Toxicity prediction: Mutagenic [4]: none
Toxicity prediction: Reproductive Effects [4]: none
Toxicity prediction: Tumorigenic [4]: none

half-life at 0.15 mg/mL ([5]; PBS buffer without esterase, PBS buffer (pH = 7.4), no esterase, read-out: Half-life (t1/2) of hydrolysis): 1690 min
% Compound remaining ([5]; pH = 2.0, 0 h): 100 ± 0.0%
% Compound remaining ([5]; pH = 2.0, 24 h): 94.2 ± 0.9% and 94.2%
% Compound remaining ([5]; pH = 2.0, 48 h): 92.2 ± 0.6%
% Compound remaining ([5]; pH = 2.0, 72 h): 86.8 ± 6.0%
% Compound remaining ([5]; pH = 2.0, 96 h): 77.1 ± 6.5%
% Compound remaining ([5]; pH = 2.0, 168 h): 73.5 ± 4.7%
% Compound remaining ([5]; pH = 7.4, 0 h): 100 ± 0.0%
% Compound remaining ([5]; pH = 7.4, 24 h): 77.3 ± 3.9% and 77.3%
% Compound remaining ([5]; pH = 7.4, 48 h): 71.2 ± 4.5%
% Compound remaining ([5]; pH = 7.4, 72 h): 52.6 ± 3.8%
% Compound remaining ([5]; pH = 7.4, 96 h): 34.7 ± 2.2%
% Compound remaining ([5]; pH = 7.4, 168 h): 18.0 ± 4.2%
% Compound remaining ([5]; pH = 8.0, 0 h): 100 ± 0.0%
% Compound remaining ([5]; pH = 8.0, 24 h): 50.4 ± 2.4% and 50.4%
% Compound remaining ([5]; pH = 8.0, 48 h): 36.1 ± 2.1%
% Compound remaining ([5]; pH = 8.0, 72 h): 19.7 ± 1.6%
IC50 (HO-1): 82 ± 2.1 µM
Structure (SMILES): O=C(CCC(=O)OC(Cn1ccnc1)c1cccc(Br)c1)OCn1cc(F)c(=O)[nH]c1=O (centres unmarked) [Compound 3, 1‐[1‐(3‐bromophenyl)‐2‐(1H‐imidazol‐1‐yl)ethyl]4‐(5‐fluoro‐2,4‐dioxo‐1,2,3,4‐tetrahydropyrimidin‐1‐yl)methyl butanedioate]

IC50 (HO-1): 105 ± 5.8 µM
melting point: 64 to 66.5 °C
Structure (SMILES): O=C(O)CCC(=O)OC(Cn1ccnc1)c1cccc(Br)c1 (centres unmarked) [Compound 2, 4‐[1‐(3‐bromophenyl)‐2‐(1H‐imidazol‐1‐yl)ethoxy]‐4‐oxobutanoic acid]
